Entries after “also recorded” stand apart in the source; their conditions may differ.
How the values were obtained:
[1] = test system: optimal tandem BRCT domain-interacting phosphopeptide, YDIpSQVFPF, or its non-phosphorylated counterpart; experiment: Peptide binding: in vitro translated [35S] BRCA1 BRCT constructs on bead-immobilized phosphorylated or non-phosphorylated peptide; conditions: in vitro transcribed and translated protein; for binding to phosphorylated peptide: bead-immobilized biotinylated phosphopeptide, SDS-PAGE and autoradiography; for binding to non-phosphorylated peptide: bead-immobilized biotinylated non-phosphorylated peptide
Description: An optimal phosphopeptide for binding the BRCA1 BRCTs was determined by oriented peptide library screening as described previously. This peptide was synthesized in both its phosphorylated and non-phosphorylated form with a biotin group at the N-terminus using N-α-FMOC-protected amino acids and standard BOP/HOBt coupling chemistry. These peptides were conjugated to streptavidin coated beads (Sigma-Aldrich). The wild-type and mutant BRCA1 BRCT domain-containing constructs (residues 1313-1863) were transcribed and translated in vitro in the presence of [^35S]-methionine using the TNT kit (Promega). The bead-immobilized peptides (10 μL of beads) were added to 10 μL of the in vitro translated [^35S]-labeled protein pool in 150 μL binding buffer (50 mM Tris-HCl (pH7.6), 150 mM NaCl, 0.5% NP-40, 1 mM EDTA, 2 mM DTT, 8 μg/mL pepstatin, 8 μg mL^−1 aprotinin, 8 μg mL^−1 leupeptin, 800 μM Na3VO4, 25 mM NaF). After incubation at 4° C. for 3 hours, the beads were washed three times with 200 μL of binding buffer prior to analysis by SDS-PAGE (12.5% (w/v)) and autoradiography.

cholinesterases = conditions: by cholinesterases; cited from earlier work
[2] = molecular target: T1, BACH1 phosphopeptide spot array (Homo sapiens); experiment: Peptide filter array (spot blot) with GST-BRCA1 BRCTs; type: binding; conditions: 0.25 μM GST-BRCA1 BRCTs M1775R, 10 times the protein of wild type
T1 construct: made in house; host or cells: bacteria (pGEX clone, IPTG induction)
Description: An ABIMED peptide arrayer with a computer controlled Gilson diluter and liquid handling robot was used to synthesize peptides onto an amino-PEG cellulose membrane using N-α-FMOC-protected amino acids and DIC/HOBT coupling chemistry. The membranes were blocked in 5% (w/v) milk in Tris-buffered saline containing 0.1% (v/v) Tween-20 (TBS-T) for 1 hr at room temperature, incubated with 0.025 μM GST-BRCA1 BRCTs or 0.25 μM GST-BRCA1 BRCTs M1775R (residues 1633-1863) in 5% (w/v) milk, 50 mM Tris-HCl (pH 7.6), 150 mM NaCl, 2 mM EDTA, 2 mM DTT for 1 hr at room temperature and washed four times with TBS-T. The membranes were then incubated with anti-GST conjugated HRP (Amersham) in 5% (w/v) milk/TBS-T for 1 hr at room temperature, washed five times with TBS-T, and binding analysed by ECL (Perkin-Elmer).

U2OS cells = experiment: Immunofluorescence: localization and nuclear foci formation of myc-tagged BRCA1 tandem BRCT domains; type: cell-based; conditions: for co-localization with anti-pSer/pThr-Gln epitope antibody staining / nuclear foci formation after DNA damage: U2OS cells, 10 Gy γ-irradiation; for co-localization with anti-pSer/pThr-Gln epitope antibody staining: 2 hrs; for nuclear foci formation after DNA damage: 2 hrs later permeabilized, fixed and stained
Description: U2OS cells were seeded onto 18 mm^2 coverslips and transfected with the BRCA1 BRCT construct (residues 1313-1863) and various mutants using FuGene6 transfection reagent (Roche) according to manufacturer's protocol. Thirty hours following transfection, the cells were either treated with 10 Gy of ionizing radiation or mock irradiated and allowed to recover for 120 minutes. Cells were fixed in 3% (v/v) paraformaldehyde/2% (w/v) sucrose for 15 min at RT and permeabilized with a 0.5% (v/v) Triton X-100 solution containing 20 mM Tris-HCl (pH 7.8), 75 mM NaCl, 300 mM sucrose, and 3 mM MgCl2 for 15 min at RT. When necessary, proteins were extracted after IR treatment as described previously. In brief, cells were incubated with extraction buffer (10 mM PIPES pH6.8, 100 mM NaCl, 300 mM sucrose, 3 mM MgCl2, 1 mM EGTA, 0.5% (v/v) Triton X-100) for 5 minutes on ice followed by incubation with extraction stripping buffer (10 mM Tris-HCl pH 7.4, 10 mM NaCl, 3 mM MgCl2, 0.5% (v/v) Triton X-100) for 5 minutes on ice followed by successive washes in ice cold PBS. Slides were fixed as above, stained with primary antibodies at 37° C. for 20 min, then stained with a anti-mouse or anti-rabbit secondary antibody for 20 min (Molecular Probes) at 37° C. Primary antibodies used were mouse anti-myc (Cell Signaling) and rabbit anti-(pSer/pThr)Gln (Cell Signaling). Images were collected on a Axioplan2 microscope (Carl Zeiss) and processed using OpenLab software (Improvision).

endogenous BACH1 = molecular target: T2, endogenous BACH1 (Homo sapiens, UniProt Q9BX63); experiment: Co-immunoprecipitation of BRCA1 BRCTs and BACH1 in transfected U2OS cells; type: cell-based; conditions: U2OS cells transfected with myc-tagged BRCA1 construct; anti-myc immunoprecipitation, anti-BACH1 blot
T2 construct: endogenous in cells; host or cells: U2OS cells (BACH1 endogenous; the BRCA1 fragment transfected from pcDNA3 with FuGene6)
T2 sequence (Q9BX63 1-1249): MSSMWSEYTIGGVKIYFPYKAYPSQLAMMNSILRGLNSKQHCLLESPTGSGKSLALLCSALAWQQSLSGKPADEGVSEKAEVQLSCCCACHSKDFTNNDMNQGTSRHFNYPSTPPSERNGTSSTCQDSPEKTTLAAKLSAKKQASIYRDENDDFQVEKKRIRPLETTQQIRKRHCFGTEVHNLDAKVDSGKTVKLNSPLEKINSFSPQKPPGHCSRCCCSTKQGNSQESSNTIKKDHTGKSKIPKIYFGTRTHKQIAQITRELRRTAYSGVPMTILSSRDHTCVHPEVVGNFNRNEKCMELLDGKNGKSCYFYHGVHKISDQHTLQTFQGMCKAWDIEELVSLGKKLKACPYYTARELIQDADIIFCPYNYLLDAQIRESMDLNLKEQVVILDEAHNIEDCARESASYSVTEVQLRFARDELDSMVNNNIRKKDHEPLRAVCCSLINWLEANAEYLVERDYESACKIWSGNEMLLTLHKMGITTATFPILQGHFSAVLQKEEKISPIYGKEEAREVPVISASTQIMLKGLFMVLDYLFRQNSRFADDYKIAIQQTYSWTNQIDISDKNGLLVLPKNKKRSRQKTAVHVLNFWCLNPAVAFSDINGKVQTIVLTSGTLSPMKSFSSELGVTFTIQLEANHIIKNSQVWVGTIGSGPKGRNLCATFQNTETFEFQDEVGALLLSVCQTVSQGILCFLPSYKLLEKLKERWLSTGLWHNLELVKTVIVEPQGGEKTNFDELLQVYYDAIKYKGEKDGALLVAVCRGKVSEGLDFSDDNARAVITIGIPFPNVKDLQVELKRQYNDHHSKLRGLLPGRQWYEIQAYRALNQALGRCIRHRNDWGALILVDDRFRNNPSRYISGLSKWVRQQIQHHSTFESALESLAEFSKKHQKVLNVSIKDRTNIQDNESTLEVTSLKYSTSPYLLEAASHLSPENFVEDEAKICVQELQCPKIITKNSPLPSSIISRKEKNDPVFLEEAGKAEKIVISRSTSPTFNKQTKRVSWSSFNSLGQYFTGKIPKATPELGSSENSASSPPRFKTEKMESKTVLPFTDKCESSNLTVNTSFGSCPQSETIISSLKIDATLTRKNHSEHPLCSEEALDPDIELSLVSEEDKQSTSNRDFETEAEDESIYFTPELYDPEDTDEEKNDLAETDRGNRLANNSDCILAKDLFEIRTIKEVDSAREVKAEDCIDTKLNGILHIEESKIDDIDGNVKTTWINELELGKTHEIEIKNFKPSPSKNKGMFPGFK
Description: U2OS cells were grown to 50% confluency in 100 cm^2 dishes and transfected with the myc-tagged wild-type or mutant BRCA1 BRCT constructs (residues 1313-1863) (SEQ ID NO.: 6) using FuGene6 transfection reagent (Roche) according to manufacturer's protocol. Cells were collected 30 hrs following transfection, lysed in lysis buffer (50 mM Tris-HCl (pH7.6), 150 mM NaCl, 1.0% NP-40, 5 mM EDTA, 2 mM DTT, 8 μg/mL AEBSF, 8 μg mL^−1 aprotinin, 8 μg mL^−1 leupeptin, 2 mM Na3VO4, 10 mM NaF and the phosphatase inhibitors microcystin and okadaic acid). Lysates containing equal amounts of protein (3 mg) was incubated with 3 μL of a mouse anti-myc antibody (Cell Signaling) for 2 hr at 4° C. and then 10 μL of protein G-sepharose beads (Sigma-Aldrich) were added and samples incubated for an additional 2 hr at 4° C. Beads were washed four times with lysis buffer, bound proteins eluted in SDS-PAGE sample buffer, analysed on 6% polyacrylamide gels, transferred to PVDF membrane, and detected by blotting with rabbit anti-BACH1 antibody. A portion of the lysates were also run and blotted with the anti-BACH1 antibody and the anti-myc antibody to further ensure equal protein loading.

Compound	binding to phosphorylated peptide [1]	co-localization with anti-pSer/pThr-Gln epitope antibody staining (U2OS cells)	nuclear foci formation after DNA damage (U2OS cells)	further results
5382InsC: BRCA1 frameshift mutation that results in a stop codon at position 1829 (SEQ ID NO.: 22)	complete loss of phosphopeptide binding	–	–	–
C[C@H]1C[C@@H]2[C@H]([C@@H](O)C[C@@]3(C)[C@H]2CC[C@]3(O)C(=O)COC(=O)CCC(=O)[O-])[C@@]2(C)C=CC(=O)C=C12.[Na+] [Methylprednisolone sodium succinate ester]	–	–	–	hydrolysis in vivo to free methylprednisolone (cholinesterases): rapidly and extensively hydrolysed
G1738E: cancer-linked BRCA1 tandem BRCT domain mutant (SEQ ID NO.: 17)	complete loss of phosphopeptide binding	–	–	–
M1775R: cancer-associated BRCA1 tandem BRCT domain mutant (SEQ ID NO.: 10)	complete loss of phosphopeptide binding	less co-localization with pSer/pThr-Gln staining foci than the wild-type protein	also formed punctate nuclear foci, although these were slightly reduced in number; also recorded: can still form nuclear foci after DNA damage	binding to BACH1 phosphopeptide in which the +3 Phe is mutated to Asp or Glu [2]: bind weakly; also recorded: binds weakly to phosphopeptides with altered motif specificity; in vivo interaction with full-length endogenous BACH1 (endogenous BACH1): completely loses the ability to interact with wild-type BACH1
P1749R: cancer-linked BRCA1 tandem BRCT domain mutant (SEQ ID NO.: 18)	complete loss of phosphopeptide binding	–	–	–
R1699Q: BRCA1 tandem BRCT domain mutant detected in breast cancer patients (SEQ ID NO.: 14)	retained a small degree of binding	–	–	binding to non-phosphorylated peptide [1]: weak phospho-independent binding; also recorded: bound to both phosphorylated and non-phosphorylated peptides
S1655A/K1702M: phosphopeptide-binding double mutant of BRCA1 tandem BRCT domains (SEQ ID NO.: 20)	completely abolished the interaction	completely failed to co-localize	only faint staining with a very fine granular pattern	nuclear foci, in words (U2OS cells; un-irradiated U2OS cells, Triton X-100 extracted prior to fixation): no foci were observed
Wild-type BRCA1 tandem BRCT domains: myc-tagged human BRCA1 BRCT construct, residues 1313-1863, with SV40 nuclear localization sequence; GST fusion of residues 1633-1863 for the filter array	clearly bind	largely co-localized	demonstrated sharp punctate nuclear foci	binding to non-phosphorylated peptide [1]: not non-phosphorylated peptides; in vivo interaction with full-length endogenous BACH1 (endogenous BACH1): easily detected
Y1853X: BRCA1 BRCT mutant which truncates the last 11 residues (SEQ ID NO.: 21)	complete loss of phosphopeptide binding	–	–	–

From patent publication US20120295802A1, “METHODS AND COMPOSITIONS FOR CANCER TREATMENT RELATING TO BRCA1 BRCT DOMAIN RECOGNITION OF PHOSPHORYLATED BACH1” (priority 2004, published 2012)
